Laboratory results: publication PMC8707861 (Tomography, 2021)
Like-named read-outs stand apart in the source and are kept apart here.

Legend:
[1] = Stability by incubation in 10 mM histidine solution (HPLC); format: physicochemical
Protocol: (§1) After different time intervals the content of the solutions was tested by HPLC method.

[2] = test system: P. aeruginosa ATCC 27,853; assay: In vitro binding of radioconjugate to bacteria; format: cell-based; details: Pseudomonas aeruginosa, 37 °C
Protocol: (§2) Bacteria were cultured on Columbia Agar supplemented with 5% sheep blood (Graso Biotech, Starogard Gdański, Poland) at 37 °C in an aerobic atmosphere for 24 h. After incubation, a bacterial suspension with the turbidity 3 according to the McFarland standards (cell density approximately 9 × 10^8 CFU/mL) was prepared in PBS. […] The mixtures of bacteria and the radioconjugate were incubated in separated tubes for different time intervals at 37 °C without shaking. […] The supernatant was removed to a new tube, and the bacterial pellet was resuspended in 1 mL of PBS, then the sample was again centrifuged at 7000 rpm for 5 min. After second centrifugation, the supernatant was removed to a new tube and the bacterial pellet was again resuspended in 1 mL of PBS. The radioactivity measurement was performed for all three fractions, two supernatants, and a final bacterial pellet suspension. Experiments for each incubation time were triplicate.

[3] = test system: S. aureus ATCC 25,923; assay: In vitro binding of radioconjugate to bacteria; format: cell-based; details: Staphylococcus aureus, 37 °C
Protocol: as §2

[4] = Stability by incubation in 10 mM cysteine solution (HPLC); format: physicochemical
Protocol: as §1

[5] = Paper electrophoresis analysis (charge of the molecule); format: physicochemical; details: 0.01 M phosphate buffer pH 7.40, 200 V, 45 min
Protocol: Paper electrophoresis experiments were achieved on 20 × 1 cm chromatographic paper strips, Paper Chromedia GF 83 (Whatman), in the phosphate buffer (0.01 M, pH 7.40), using the midi horizontal electrophoresis unit (Sigma-Aldrich) device. For both radioconjugates, the experiments were carried out at 200 V (10 V cm^−1) for 45 min and then the distribution of radioactivity on the strips was determined using a Storage Phosphor System Cyclone Plus (Perkin-Elmer Life and Analytical Sciences, Downers Grove, IL, USA).

[6] = human serum, 37 °C
Protocol: In the case of stability studies in human serum (HS), the solution of isolated radioconjugate in PBS (0.1 mL) was added to 0.9 mL of the human serum and incubated at 37 °C. After time periods up to 4 h, 0.2 mL of the incubated serum mixture were withdrawn, mixed in an Eppendorf tube with 0.5 mL ethanol and vigorously shaken to precipitate proteins. After centrifuging (14,000 rpm for 5 min) the γ-radiation of both the supernatant and precipitate was measured using the well-type NaI(Tl) detector. To check whether the radioconjugate had not converted into other water-soluble radioactive species, aliquots of the supernatant were analysed by HPLC.

[7] = n-octanol/PBS pH 7.40, triplicate
[8] = period of four half-lives of the radionuclide

O=C(O)C[N+]12CC[N+]34CC[N+]5(CC(=O)N6CCN(c7cc8c(cc7F)c(=O)c(C(=O)O)cn8C7CC7)CC6)CC[N+]6(CC1)CC(=O)[O][68Ga-3]2365[O]C(=O)C4 (centres unmarked) [[^68Ga]Ga-DOTA-CIP]
% of intact radioconjugate after incubation in HIS ([1]; 10 mM HIS in PBS pH 7.4, 37 °C, after 4 h): ~100% | Stability in HIS challenging solution (in words) [1, 8]: completely stable | Radioconjugate Uptake ([2]; binding time 30 min): 0.82 ± 0.16% | Radioconjugate Uptake ([2]; binding time 60 min): 1.29 ± 0.27% | Radioconjugate Uptake ([3]; binding time 30 min): 0.89 ± 0.11% | Radioconjugate Uptake ([3]; binding time 60 min): 1.1 ± 0.15% | % of intact radioconjugate after incubation in CYS ([4]; 10 mM CYS in PBS pH 7.4, 37 °C, after 4 h): ~100% | Stability in CYS challenging solution (in words) [4, 8]: completely stable | Charge of the molecule by electrophoresis [5]: Negative charge | % of intact radioconjugate after incubation in HS ([6]; after 0.5 h): ~100% | % of intact radioconjugate after incubation in HS ([6]; after 1 h): ~100% | % of intact radioconjugate after incubation in HS ([6]; after 4 h): ~100% | Stability in HS (in words) ([6]; for 68Ga period of four half-lives): completely stable | logD [7]: −3.1 ± 0.1
